Assay results as given in patent US11752188B2, “Compositions and methods for nutritional supplements” (DailyColors Health Inc., priority 2020, dated 2023).
Where two headings read alike, the source gives them in different places. Each block holds one molecule with its values, some of them ahead of it.

Tests used:
[1] = molecular target: T1, recombinant human CD38 (Homo sapiens, UniProt P28907); assay: CD38 hydrolase in vitro enzymatic assay (ε-NAD+ substrate); assay type: biochemical
T1 construct: purchased 71277
T1 sequence (P28907 1-300): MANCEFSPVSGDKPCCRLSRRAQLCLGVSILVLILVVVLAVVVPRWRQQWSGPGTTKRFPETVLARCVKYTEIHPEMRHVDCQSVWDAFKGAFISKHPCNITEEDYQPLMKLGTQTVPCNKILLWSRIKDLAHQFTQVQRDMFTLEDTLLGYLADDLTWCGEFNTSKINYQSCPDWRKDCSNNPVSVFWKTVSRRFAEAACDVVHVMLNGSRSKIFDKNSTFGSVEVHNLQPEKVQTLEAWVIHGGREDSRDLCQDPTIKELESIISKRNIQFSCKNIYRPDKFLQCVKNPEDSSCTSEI
From the text: Here, DC-5=Yellow Blend, DC-9=Purple Blend, DC-21-Green Blend, DC-13=Red Blend DCH-TIV 1.0 (Adult Centrum Multivitamins). The red blend included Apple Extract, Pomegranate Extract, Tomato Powder, Beet; the green blend included Olive Extract, Rosemary Extract, Green Coffee Bean Extract, Kale; the orange/yellow blend included Onion Extract, Ginger Extract, Grapefruit Extract, Carrot; and the purple/blue blend included Grape, Blueberry Extract, Currant, and Elderberry as listed above.
Assay Conditions: 10 μl of the sample or reference inhibitor was added to 20 μl of enzyme solution and pre-incubated for 30 minutes. The enzymatic reactions were started by the addition of 20 μl of the substrate ε-NAD+, for a total reaction volume of 50 μl. Reaction time was 10 minutes, and then fluorescence intensity at an excitation of 300 nm and an emission of 410 nm was read using a Tecan Infinite M1000 microplate reader.
(§1) Data Analysis: Enzyme activity assays were performed in duplicates at each concentration. The fluorescence intensity data were analyzed and compared. In the absence of the compound, the intensity in each data set was defined as 100% (Ce) activity. In the absence of enzyme, the intensity in each data set was defined as 0% (C0) activity. […] Compound fluorescence was removed by subtracting fluorescence at reaction time=0.

[2] = molecular target: recombinant human Cathepsin S (Homo sapiens, UniProt P25774); assay: Cathepsin S in vitro enzymatic assay (fluorogenic substrate); assay type: biochemical
recombinant human Cathepsin S, sequence (P25774 115-331): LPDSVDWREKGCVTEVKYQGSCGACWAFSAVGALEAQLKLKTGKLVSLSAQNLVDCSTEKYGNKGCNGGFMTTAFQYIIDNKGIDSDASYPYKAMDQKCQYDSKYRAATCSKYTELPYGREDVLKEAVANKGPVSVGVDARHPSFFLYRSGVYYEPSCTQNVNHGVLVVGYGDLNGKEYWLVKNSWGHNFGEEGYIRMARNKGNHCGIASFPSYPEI
Method: Assay Conditions: Cathepsin S was activated by diluting the concentrated storage stock into the acidic assay buffer for 30 minutes at room temperature. Then, 5 μl of the sample or reference inhibitor was added to 20 μl of enzyme solution and pre-incubated for 30 minutes. The enzymatic reactions were started by the addition of 25 μl of the fluorogenic substrate, for a total reaction volume of 50 μl. Reaction time was 60 minutes, and then fluorescence intensity at an excitation of 360 nm and an emission of 460 nm was read using a Tecan Infinite M1000 microplate reader.
as §1

- Net Signal (Fluorescence counts) Repeat 1 ([1]; 1 μM, Table 61): 3461 Fluorescence counts
- Net Signal (Fluorescence counts) Repeat 2 ([1]; 1 μM, Table 61): 3761 Fluorescence counts
- inhibition at 1 µM ([1]; 1 μM, Table 61): 14%
- activity at 1 µM ([1]; 1 μM, Table 61, read-out: Activity (%) Repeat 1): 82%
- activity at 1 µM ([1]; 1 μM, Table 61, read-out: Activity (%) Repeat 2): 89%
- Net Signal (Fluorescence counts) Repeat 1 ([1]; 1 μM, Table 62): 8650 Fluorescence counts
- Net Signal (Fluorescence counts) Repeat 2 ([1]; 1 μM, Table 62): 8614 Fluorescence counts
- inhibition at 1 µM ([1]; 1 μM, Table 62): 6%
- activity at 1 µM ([1]; 1 μM, Table 62, read-out: Activity (%) Repeat 1): 94%
- activity at 1 µM ([1]; 1 μM, Table 62, read-out: Activity (%) Repeat 2): 94%
- Net Signal (Fluorescence counts) Repeat 1 ([1]; 1 μM, Table 63): 11531 Fluorescence counts
- Net Signal (Fluorescence counts) Repeat 2 ([1]; 1 μM, Table 63): 11647 Fluorescence counts
- inhibition at 1 µM ([1]; 1 μM, Table 63): 14%
- activity at 1 µM ([1]; 1 μM, Table 63, read-out: Activity (%) Repeat 1): 86%
- activity at 1 µM ([1]; 1 μM, Table 63, read-out: Activity (%) Repeat 2): 86%
- Net Signal (Fluorescence counts) Repeat 1 ([1]; 1 μM, TABLE 64): 4138 counts
- Net Signal (Fluorescence counts) Repeat 2 ([1]; 1 μM, TABLE 64): 3883 counts
- inhibition at 1 µM ([1]; 1 μM, TABLE 64): 8%
- activity at 1 µM ([1]; 1 μM, TABLE 64, read-out: Activity (%) Repeat 1): 95%
- activity at 1 µM ([1]; 1 μM, TABLE 64, read-out: Activity (%) Repeat 2): 89%
- Net Signal (Fluorescence counts) Repeat 1 ([1]; 10 μM, Table 61): 647 Fluorescence counts
- Net Signal (Fluorescence counts) Repeat 2 ([1]; 10 μM, Table 61): 618 Fluorescence counts
- inhibition at 10 µM ([1]; 10 μM, Table 61): 85%
- activity at 10 µM ([1]; 10 μM, Table 61, read-out: Activity (%) Repeat 1): 15%
- activity at 10 µM ([1]; 10 μM, Table 61, read-out: Activity (%) Repeat 2): 14%
- Net Signal (Fluorescence counts) Repeat 1 ([1]; 10 μM, Table 62): 4670 Fluorescence counts
- Net Signal (Fluorescence counts) Repeat 2 ([1]; 10 μM, Table 62): 5416 Fluorescence counts
- inhibition at 10 µM ([1]; 10 μM, Table 62): 45%
- activity at 10 µM ([1]; 10 μM, Table 62, read-out: Activity (%) Repeat 1): 51%
- activity at 10 µM ([1]; 10 μM, Table 62, read-out: Activity (%) Repeat 2): 59%
- Net Signal (Fluorescence counts) Repeat 1 ([1]; 10 μM, Table 63): 7118 Fluorescence counts
- Net Signal (Fluorescence counts) Repeat 2 ([1]; 10 μM, Table 63): 7228 Fluorescence counts
- inhibition at 10 µM ([1]; 10 μM, Table 63): 47%
- activity at 10 µM ([1]; 10 μM, Table 63, read-out: Activity (%) Repeat 1): 53%
- activity at 10 µM ([1]; 10 μM, Table 63, read-out: Activity (%) Repeat 2): 54%
- Net Signal (Fluorescence counts) Repeat 1 ([1]; 10 μM, TABLE 64): 3091 counts
- Net Signal (Fluorescence counts) Repeat 2 ([1]; 10 μM, TABLE 64): 3057 counts
- inhibition at 10 µM ([1]; 10 μM, TABLE 64): 30%
- activity at 10 µM ([1]; 10 μM, TABLE 64, read-out: Activity (%) Repeat 1): 70%
- activity at 10 µM ([1]; 10 μM, TABLE 64, read-out: Activity (%) Repeat 2): 70%
- Net Signal (Fluorescence counts) Repeat 1 ([1]; 100 μM, Table 61): 185 Fluorescence counts
- Net Signal (Fluorescence counts) Repeat 2 ([1]; 100 μM, Table 61): 135 Fluorescence counts
- inhibition at 100 µM ([1]; 100 μM, Table 61): 96%
- activity at 100 µM ([1]; 100 μM, Table 61, read-out: Activity (%) Repeat 1): 4%
- activity at 100 µM ([1]; 100 μM, Table 61, read-out: Activity (%) Repeat 2): 3%
- Net Signal (Fluorescence counts) Repeat 1 ([1]; 100 μM, Table 62): 1979 Fluorescence counts
- Net Signal (Fluorescence counts) Repeat 2 ([1]; 100 μM, Table 62): 2165 Fluorescence counts
- inhibition at 100 µM ([1]; 100 μM, Table 62): 78%
- activity at 100 µM ([1]; 100 μM, Table 62, read-out: Activity (%) Repeat 1): 21%
- activity at 100 µM ([1]; 100 μM, Table 62, read-out: Activity (%) Repeat 2): 23%
- Net Signal (Fluorescence counts) Repeat 1 ([1]; 100 μM, Table 63): 5012 Fluorescence counts
- Net Signal (Fluorescence counts) Repeat 2 ([1]; 100 μM, Table 63): 5473 Fluorescence counts
- inhibition at 100 µM ([1]; 100 μM, Table 63): 61%
- activity at 100 µM ([1]; 100 μM, Table 63, read-out: Activity (%) Repeat 1): 37%
- activity at 100 µM ([1]; 100 μM, Table 63, read-out: Activity (%) Repeat 2): 40%
- Net Signal (Fluorescence counts) Repeat 1 ([1]; 100 μM, TABLE 64): 632 counts
- Net Signal (Fluorescence counts) Repeat 2 ([1]; 100 μM, TABLE 64): 728 counts
- inhibition at 100 µM ([1]; 100 μM, TABLE 64): 85%
- activity at 100 µM ([1]; 100 μM, TABLE 64, read-out: Activity (%) Repeat 1): 14%
- activity at 100 µM ([1]; 100 μM, TABLE 64, read-out: Activity (%) Repeat 2): 16%
SMILES: O=c1cc(-c2ccc(O)cc2)oc2cc(O)cc(O)c12 [Apigenin]

- Activity (%) Repeat 1 ([2]; 1 nM, Table 35): 98%
- Activity (%) Repeat 2 ([2]; 1 nM, Table 35): 95%
- Inhibition (%) ([2]; 1 nM, Table 35): 4%
- Net Signal (Fluorescence counts) Repeat 1 ([2]; 1 nM, Table 35): 9894 Fluorescence counts
- Net Signal (Fluorescence counts) Repeat 2 ([2]; 1 nM, Table 35): 9604 Fluorescence counts
- Activity (%) Repeat 1 ([2]; 1 nM, Table 36): 99%
- Activity (%) Repeat 2 ([2]; 1 nM, Table 36): 100%
- Inhibition (%) ([2]; 1 nM, Table 36): 1%
- Net Signal (Fluorescence counts) Repeat 1 ([2]; 1 nM, Table 36): 8864 Fluorescence counts
- Net Signal (Fluorescence counts) Repeat 2 ([2]; 1 nM, Table 36): 8931 Fluorescence counts
- Activity (%) Repeat 1 ([2]; 0.001 μM, Table 37): 88%
- Activity (%) Repeat 2 ([2]; 0.001 μM, Table 37): 83%
- Inhibition (%) ([2]; 0.001 μM, Table 37): 15%
- Net Signal (Fluorescence counts) Repeat 1 ([2]; 0.001 μM, Table 37): 52418 Fluorescence counts
- Net Signal (Fluorescence counts) Repeat 2 ([2]; 0.001 μM, Table 37): 49644 Fluorescence counts
- Activity (%) Repeat 1 ([2]; 10 nM, Table 35): 51%
- Activity (%) Repeat 2 ([2]; 10 nM, Table 35): 54%
- Inhibition (%) ([2]; 10 nM, Table 35): 48%
- Net Signal (Fluorescence counts) Repeat 1 ([2]; 10 nM, Table 35): 5170 Fluorescence counts
- Net Signal (Fluorescence counts) Repeat 2 ([2]; 10 nM, Table 35): 5444 Fluorescence counts
- Activity (%) Repeat 1 ([2]; 10 nM, Table 36): 64%
- Activity (%) Repeat 2 ([2]; 10 nM, Table 36): 59%
- Inhibition (%) ([2]; 10 nM, Table 36): 38%
- Net Signal (Fluorescence counts) Repeat 1 ([2]; 10 nM, Table 36): 5727 Fluorescence counts
- Net Signal (Fluorescence counts) Repeat 2 ([2]; 10 nM, Table 36): 5326 Fluorescence counts
- Activity (%) Repeat 1 ([2]; 0.01 μM, Table 37): 36%
- Activity (%) Repeat 2 ([2]; 0.01 μM, Table 37): 33%
- Inhibition (%) ([2]; 0.01 μM, Table 37): 66%
- Net Signal (Fluorescence counts) Repeat 1 ([2]; 0.01 μM, Table 37): 21262 Fluorescence counts
- Net Signal (Fluorescence counts) Repeat 2 ([2]; 0.01 μM, Table 37): 19656 Fluorescence counts
- Activity (%) Repeat 1 ([2]; 0.1 μM, Table 37): 5%
- Activity (%) Repeat 2 ([2]; 0.1 μM, Table 37): 6%
- Inhibition (%) ([2]; 0.1 μM, Table 37): 95%
- Net Signal (Fluorescence counts) Repeat 1 ([2]; 0.1 μM, Table 37): 3091 Fluorescence counts
- Net Signal (Fluorescence counts) Repeat 2 ([2]; 0.1 μM, Table 37): 3478 Fluorescence counts
- Activity (%) Repeat 1 ([2]; 100 nM, Table 35): 9%
- Activity (%) Repeat 2 ([2]; 100 nM, Table 35): 9%
- Inhibition (%) ([2]; 100 nM, Table 35): 91%
- Net Signal (Fluorescence counts) Repeat 1 ([2]; 100 nM, Table 35): 958 Fluorescence counts
- Net Signal (Fluorescence counts) Repeat 2 ([2]; 100 nM, Table 35): 960 Fluorescence counts
- Activity (%) Repeat 1 ([2]; 100 nM, Table 36): 11%
- Activity (%) Repeat 2 ([2]; 100 nM, Table 36): 12%
- Inhibition (%) ([2]; 100 nM, Table 36): 89%
- Net Signal (Fluorescence counts) Repeat 1 ([2]; 100 nM, Table 36): 1009 Fluorescence counts
- Net Signal (Fluorescence counts) Repeat 2 ([2]; 100 nM, Table 36): 1033 Fluorescence counts
SMILES: CC(C)C[C@H](NC(=O)[C@H]1O[C@@H]1C(=O)O)C(=O)NCCCCN=C(N)N [E-64]
